Laboratory results from patent US20250197420A1, “MACROCYCLIC COMPOUNDS, COMPOSITIONS, AND METHODS OF USING THEREOF” (Sionna Therapeutics Inc., priority 2022, published 2025).

Assays:
[1] = biological target: T1, Purified recombinant NBD1 (Homo sapiens, UniProt P13569); assay: Aggregation analysis using differential static light scattering (DSLS): thermal stability of NBD1; type: binding; conditions: NBD1 0.2 mg/ml; Tagg of compound well minus average Tagg of DMSO control wells
T1 construct: Purified recombinant NBD1 was produced using previously described methods; made in house
T1 sequence (P13569 423-646 limits assumed): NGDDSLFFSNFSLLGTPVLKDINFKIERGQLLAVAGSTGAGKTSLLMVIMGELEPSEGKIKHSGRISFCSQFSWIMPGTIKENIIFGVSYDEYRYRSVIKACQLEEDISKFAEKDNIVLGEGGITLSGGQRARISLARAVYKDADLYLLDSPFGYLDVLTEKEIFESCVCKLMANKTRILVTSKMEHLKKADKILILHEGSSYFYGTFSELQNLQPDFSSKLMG
Method in brief: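 ΔTagg is compound-well aggregation temperature minus the DMSO-control mean, each Tagg being the inflection point of light scattering measured by DSLS during a 1 °C/min ramp up to 70 °C. The protein was purified NBD1 (0.2 mg/ml) in pH 7.6 buffer containing 2 mM ATP, 5 mM MgCl2 and 1% glycerol.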

[2] = test system: Primary human bronchial epithelial cells from a ΔF508 homozygous CF donor (CF-HBE cells); assay: TECC24 recording of CFTR-mediated transepithelial chloride transport, AUC fold over benchmark VX-809 @10 μM; type: cell-based; conditions: 48 hours incubation, AUC of forskolin-stimulated IEQ
Method in brief: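 Values are the forskolin-to-inhibitor-172 AUC of equivalent Cl− current, derived from transepithelial voltage and resistance, divided by the VX-809 AUC and binned as A <3, B 3–6, C 6–20. Cells were pre-incubated with compound for 48 h at 36.5 °C; the bath (pH 7.4) received benzamil 10 μM, forskolin 10 μM, then CFTRinh-172 20 μM.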

Compound	DSLS (ΔTagg) [1]	TECC (test agent AUC divided by VX-809 AUC) [2]
CC1(C)CCCC(c2cccc(CCC(=O)O)c2)n2ccc(n2)-c2cc(ccc2F)Oc2c(F)cc3[nH]ccc3c2CCOC(=O)N1 (single isomer, unassigned) [Compound 95B, 3-[3-(23,29-difluoro-10,10-dimethyl-12-oxo-13,25-dioxa-5,11,20,31-tetrazapentacyclo-[24.3.1.12,5.016,24.017,21]hentriaconta-1(30),2(31),3,16(24),17(21),18,22,26,28-nonaen-6-yl)phenyl]propanoic acid]	B (a value above 5 °C and less than or equal to 10 °C is marked “B”)	B (a value between 3 and 6 is marked “B”)
CC1(C)CCOCC(c2cccc(CCC(=O)O)c2)n2ccc(n2)-c2cc(ccc2F)Oc2c(F)cc3[nH]ccc3c2COC(=O)N1 (single isomer, unassigned) [Compound 96A, 3-[3-(23,29-difluoro-11,11-dimethyl-13-oxo-8,14,25-trioxa-5,12,20,31-tetrazapentacyclo[24.3.1.12,5.016,24.017,21]hentriaconta-1(30),2(31),3,16,18,21,23,26,28-nonaen-6-yl)phenyl]propanoic acid]	C (a value greater than 10 °C and less than or equal to 25 °C is marked “C”)	B (a value between 3 and 6 is marked “B”)
CC1(C)CCOCC(c2cccc(CCC(=O)O)c2)n2ccc(n2)-c2cc(ccc2F)Oc2c(F)cc3[nH]ccc3c2COC(=O)N1 (single isomer, unassigned) [Compound 96B, 3-[3-(23,29-difluoro-11,11-dimethyl-13-oxo-8,14,25-trioxa-5,12,20,31-tetrazapentacyclo[24.3.1.12,5.016,24.017,21]hentriaconta-1(30),2(31),3,16,18,21,23,26,28-nonaen-6-yl)phenyl]propanoic acid]	C (a value greater than 10 °C and less than or equal to 25 °C is marked “C”)	C (a value between 6 and 20 is marked “C”)
Cn1nc2nc1-c1cc(ccc1F)Oc1c(F)cc3[nH]ccc3c1COC(=O)NC(C)(C)CCCCC2c1cccc(CCC(=O)O)c1 (single isomer, unassigned) [Compound 97A, 3-[3-(23,29-difluoro-3,11,11-trimethyl-13-oxo-14,25-dioxa-3,4,12,20,31-pentazapentacyclo-[24.3.1.12,5.016,24.017,21]hentriaconta-1(30),2(31),4,16,18,21,23,26,28-nonaen-6-yl)phenyl]propanoic acid]	C (a value greater than 10 °C and less than or equal to 25 °C is marked “C”)	B (a value between 3 and 6 is marked “B”)
Cn1nc2nc1-c1cc(ccc1F)Oc1c(F)cc3[nH]ccc3c1COC(=O)NC(C)(C)CCCCC2c1cccc(CCC(=O)O)c1 (single isomer, unassigned) [Compound 97B, 3-[3-(23,29-difluoro-3,11,11-trimethyl-13-oxo-14,25-dioxa-3,4,12,20,31-pentazapentacyclo-[24.3.1.12,5.016,24.017,21]hentriaconta-1(30),2(31),4,16,18,21,23,26,28-nonaen-6-yl)phenyl]propanoic acid]	C (a value greater than 10 °C and less than or equal to 25 °C is marked “C”)	B (a value between 3 and 6 is marked “B”)
Cn1nc2nc1-c1cc(ccc1F)Oc1c(F)cc3[nH]ccc3c1CCNC(=O)OCC(C)(C)CC[C@@]2(C)c1cccc(CCC(=O)O)c1 (single isomer, unassigned) [Compound 98A]	C (a value greater than 10 °C and less than or equal to 25 °C is marked “C”)	C (a value between 6 and 20 is marked “C”)
Cn1nc2nc1-c1cc(ccc1F)Oc1c(F)cc3[nH]ccc3c1CCNC(=O)OCC(C)(C)CC[C@@]2(C)c1cccc(CCC(=O)O)c1 (single isomer, unassigned) [Compound 98B]	A (an ΔTagg value less than or equal to 5 °C is marked “A”)	B (a value between 3 and 6 is marked “B”)
Cn1nc2nc1-c1cc(ccc1F)Oc1c(F)cc3[nH]ccc3c1COC(=O)NC(C)(C)CCCC2(C)c1cccc(CCC(=O)O)c1 (single isomer, unassigned) [Compound 99A, 3-[3-(22,28-difluoro-3,6,10,10-tetramethyl-12-oxo-13,24-dioxa-3,4,11,19,30-pentazapentacyclo-[23.3.1.12,5.015,23.016,20]-triaconta-1(29),2(30),4,15,17,20,22,25,27-nonaen-6-yl)phenyl]propanoic acid]	C (a value greater than 10 °C and less than or equal to 25 °C is marked “C”)	B (a value between 3 and 6 is marked “B”)
Cn1nc2nc1-c1cc(ccc1F)Oc1c(F)cc3[nH]ccc3c1COC(=O)NC(C)(C)CCCC2(C)c1cccc(CCC(=O)O)c1 (single isomer, unassigned) [Compound 99B, 3-[3-(22,28-difluoro-3,6,10,10-tetramethyl-12-oxo-13,24-dioxa-3,4,11,19,30-pentazapentacyclo-[23.3.1.12,5.015,23.016,20]-triaconta-1(29),2(30),4,15,17,20,22,25,27-nonaen-6-yl)phenyl]propanoic acid]	A (an ΔTagg value less than or equal to 5 °C is marked “A”)	B (a value between 3 and 6 is marked “B”)
Cn1nc2nc1-c1cc(ccc1F)Oc1c(F)cc3[nH]ccc3c1COC(=O)NC(C)(C)COCCC2(C)c1cccc(CCC(=O)O)c1 (single isomer, unassigned) [Compound 100A, 3-[3-(23,29-difluoro-3,6,11,11-tetramethyl-13-oxo-9,14,25-trioxa-3,4,12,20,31-pentazapentacyclo-[24.3.1.12,5.016,24.017,21]hentriaconta-1(30),2(31),4,16,18,21,23,26,28-nonaen-6-yl)phenyl]propanoic acid]	C (a value greater than 10 °C and less than or equal to 25 °C is marked “C”)	C (a value between 6 and 20 is marked “C”)
Cn1nc2nc1-c1cc(ccc1F)Oc1c(F)cc3[nH]ccc3c1COC(=O)NC(C)(C)COCCC2(C)c1cccc(CCC(=O)O)c1 (single isomer, unassigned) [Compound 100B, 3-[3-(23,29-difluoro-3,6,11,11-tetramethyl-13-oxo-9,14,25-trioxa-3,4,12,20,31-pentazapentacyclo-[24.3.1.12,5.016,24.017,21]hentriaconta-1(30),2(31),4,16,18,21,23,26,28-nonaen-6-yl)phenyl]propanoic acid]	A (an ΔTagg value less than or equal to 5 °C is marked “A”)	C (a value between 6 and 20 is marked “C”)
CC(Cc1cccc(C2(C)CCCCC(C)(C)NC(=O)OCc3c(c(F)cc4[nH]ccc34)Oc3ccc(F)c(c3)-c3nc2nn3C)c1)C(=O)O (single isomer, unassigned) [Compound 101A, 3-[3-(23,29-difluoro-3,6,11,11-tetramethyl-13-oxo-14,25-dioxa-3,4,12,20,31-pentazapentacyclo[24.3.1.12,5.016,24.017,21]-hentriaconta-1(30),2(31),4,16,18,21,23,26,28-nonaen-6-yl)phenyl]-2-methyl-propanoic acid]	C (a value greater than 10 °C and less than or equal to 25 °C is marked “C”)	B (a value between 3 and 6 is marked “B”)
